From the supplement of paper PMC10307832

What was measured:
Assay in all cases: relative viability (nuclei count vs DMSO), 5 days (fraction); higher = more cells survive
Shikonin + Vorinostat = compound: CC(C)=CC[C@@H](O)C1=CC(=O)c2c(O)ccc(O)c2C1=O [Shikonin] + O=C(CCCCCCC(=O)Nc1ccccc1)NO [Vorinostat] (partner 1 µM)
In short: (§1)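 Five library-drug doses in √10 steps were combined with a fixed anchor-drug dose, or a single drug was given alone, by pin tool to lung cancer cell lines in 1536-well plates the day after seeding. Nuclei were stained and counted after 5 days. Relative viability is the nuclei count in treated wells over that in vehicle wells, taken as the median of duplicate plates.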

Shikonin + Bortezomib = compound: CC(C)=CC[C@@H](O)C1=CC(=O)c2c(O)ccc(O)c2C1=O [Shikonin] + CC(C)C[C@H](NC(=O)[C@H](Cc1ccccc1)NC(=O)c1cnccn1)B(O)O [Bortezomib] (partner 0.002 µM)
In short: as §1

[1] = compound: CC(C)N(CCCNC(=O)Nc1ccc(C(C)(C)C)cc1)C[C@H]1O[C@@H](n2ccc3c(N)ncnc32)[C@H](O)[C@@H]1O + NC(=O)Nc1cc(-c2cccc(F)c2)sc1C(=O)N[C@H]1CCCNC1 [AZD7762] (partner 0.2 µM)
In short: as §1

[2] = compound: CC(C)N(CCCNC(=O)Nc1ccc(C(C)(C)C)cc1)C[C@H]1O[C@@H](n2ccc3c(N)ncnc32)[C@H](O)[C@@H]1O + N=C(N)NC(=N)NCCc1ccccc1 [Phenformin] (partner 250 µM)
In short: as §1

| Cell Line | relative viability (Shikonin + Vorinostat; first compound 0.01 µM) | relative viability (Shikonin + Vorinostat; first compound 0.1 µM) | relative viability (Shikonin + Vorinostat; first compound 0.3162 µM) | relative viability (Shikonin + Vorinostat; first compound 1 µM) | relative viability (Shikonin + Bortezomib; first compound 0.01 µM) | relative viability (Shikonin + Bortezomib; first compound 0.1 µM) | relative viability (Shikonin + Bortezomib; first compound 0.3162 µM) | relative viability (Shikonin + Bortezomib; first compound 1 µM) | relative viability ([1]; first compound 0.08 µM) | relative viability ([1]; first compound 0.253 µM) | relative viability ([1]; first compound 0.8 µM) | relative viability ([1]; first compound 2.53 µM) | relative viability ([1]; first compound 8 µM) | relative viability ([2]; first compound 0.08 µM) | relative viability ([2]; first compound 0.253 µM) | relative viability ([2]; first compound 0.8 µM) | relative viability ([2]; first compound 2.53 µM) | relative viability ([2]; first compound 8 µM) |
| --- | --- | --- | --- | --- | --- | --- | --- | --- | --- | --- | --- | --- | --- | --- | --- | --- | --- | --- |
| LCLC-103H | 0.791 | 0.877 | 0.801 | 0.889 | 1.12 | 1.12 | 1.07 | 1.25 | 0.745 | 0.805 | 0.686 | 0.701 | 0.727 | 0.326 | 0.342 | 0.304 | 0.261 | 0.304 |
| BEN | 0.567 | 0.619 | 0.606 | 0.617 | 0.826 | 1.04 | 0.748 | 0.849 | 0.736 | 0.746 | 0.716 | 0.598 | 0.795 | 0.254 | 0.258 | 0.265 | 0.246 | 0.287 |
| NCI-H1666 | 1.07 | 0.96 | 0.966 | 1.12 | 0.799 | 0.879 | 0.819 | 0.729 | 0.924 | 0.898 | 0.758 | 0.844 | 0.773 | 0.546 | 0.594 | 0.543 | 0.586 | 0.542 |
| LC-2-ad | 0.696 | 0.759 | 0.739 | 0.678 | 1.08 | 1.05 | 1.07 | 1.02 | 0.834 | 0.802 | 0.677 | 0.787 | 0.771 | 0.587 | 0.546 | 0.526 | 0.6 | 0.565 |
| ChaGo-K-1 | 0.746 | 0.914 | 0.8 | 0.762 | 0.957 | 1.35 | 0.911 | 1.53 | 0.881 | 0.936 | 0.858 | 0.863 | 0.79 | 0.494 | 0.47 | 0.427 | 0.458 | 0.46 |
| NCI-H1975 | 0.687 | 0.785 | 0.801 | 0.64 | 0.273 | 0.365 | 0.452 | 0.363 | 0.701 | 0.686 |  | 0.642 | 0.53 | 0.393 | 0.387 | 0.202 | 0.393 | 0.338 |
| NCI-H2347 | 0.567 | 0.529 | 0.6 | 0.577 | 1.09 | 1.11 | 0.848 | 1.23 | 0.795 | 0.815 | 0.605 | 0.803 | 0.746 | 0.536 | 0.404 | 0.369 | 0.488 | 0.254 |
| HCC-366 | 0.367 | 0.425 | 0.323 | 0.484 | 1.32 | 1.59 | 1.12 | 1.08 | 0.208 | 0.237 | 0.277 | 0.104 | 0.249 | 0.625 | 0.627 | 0.754 | 0.588 | 0.53 |
| EMC-BAC-2 | 0.431 | 0.465 | 0.439 | 0.659 | 1.05 | 1.18 | 1.21 | 1.07 | 1.08 | 1.1 | 1.08 | 1.03 | 0.979 | 0.564 | 0.581 | 0.565 | 0.543 | 0.449 |
| NCI-H3122 | 1.07 | 0.986 | 1.29 | 0.944 | 1.06 | 1.13 | 1.01 | 1.06 | 0.967 | 1.03 | 1.02 | 0.907 | 0.959 | 0.39 | 0.384 | 0.367 | 0.366 | 0.358 |
| EPLC-272H | 0.378 | 0.353 | 0.536 | 0.377 | 0.76 | 0.923 | 0.957 | 0.923 | 0.262 | 0.238 | 0.21 | 0.259 | 0.35 | 0.286 | 0.271 | 0.32 | 0.296 | 0.298 |
| NCI-H1915 | 0.511 | 0.612 | 0.576 | 0.479 | 1.01 | 1.15 | 1.06 | 1.06 | 0.674 | 0.726 | 0.607 | 0.668 | 0.56 | 0.362 | 0.388 | 0.378 | 0.388 | 0.353 |
| NCI-H650 | 0.425 | 0.418 | 0.465 | 0.439 | 0.83 |  | 0.77 | 0.98 | 1.07 | 0.956 | 0.878 | 0.87 | 1.04 | 0.433 | 0.456 | 0.514 | 0.417 | 0.411 |
| NCI-H441 | 0.875 | 0.832 | 0.783 | 0.695 | 0.581 | 0.666 | 0.549 | 0.603 | 1.04 | 1.13 |  | 1.07 | 1.33 | 0.813 | 0.923 |  | 0.776 | 0.824 |
| NCI-H23 | 0.611 | 0.75 | 0.59 | 0.625 | 1.11 | 0.953 | 1.13 | 1.13 | 0.252 |  | 0.226 | 0.201 | 0.305 | 0.771 | 0.806 | 0.791 | 0.843 | 0.746 |
| NCI-H2087 | 0.624 | 0.742 | 0.696 | 0.689 | 0.951 | 0.888 | 1.14 | 0.898 | 1.31 | 1.26 | 1.51 | 1.38 | 1.29 | 0.38 | 0.519 | 0.445 | 0.55 | 0.351 |
| NCI-H1993 | 0.72 | 0.773 | 1.02 | 0.806 |  | 1.19 | 1.09 | 1.03 | 0.659 |  | 0.941 | 0.777 | 0.673 | 0.464 |  |  | 0.539 | 0.498 |
